From patent publication US6673340B1, “Basement membrane degrading proteases as insect toxins and methods of use for same” (Iowa State University Research Foundation, Inc., priority 1999, dated 2004) come the findings set out here.

Structures are written as SMILES.

The subject of this experiment is zinc metalloproteases. Nature of the experiment: Azocoll assay with selective protease inhibitor. In kind it is biochemical. Conditions: 1 mM inhibitor, azocoll assay pH 7.6. The protocol:
Azocoll assays were carried out as described by Fisher and Werb (1995). For assays on medium from cells infected with the viruses expressing the mammalian proteases, all medium samples were concentrated 10-fold except for medium from AcMLF9.STR1-infected cells. Samples for analysis of S. peregrina cathepsin L expression were not concentrated. Aliquots of infected cell medium (2.5 μl for AcMLF9. ScathL-infected cells, 40 μl for all other samples) were mixed with 200 μl of 2 mg/ml azocoll suspended either in 50 mM Tris, pH 7.6-10 mM CaCl2-200 mM NaCl-50 μM ZnSO4 (for detection of stromelysin-1 and gelatinase A activity) or in 0.1 M sodium acetate, pH 5.0 (for detection of cathepsin L activity) in a final volume of 240 μl. A control reaction with sufficient dispase (Boehringer Mannheim, Indianapolis, Ind.) to digest all azocoll in the reaction tube was used as a standard. […] Absorbance of the supernatant was measured at 520 nm for each reaction, and mg azocoll digested/ml medium was calculated based on the absorbance of the dispase control reaction (Fisher, S. J., and Werb, Z. 1995. The catabolism of extracellular matrix components. In “Extracellular Matrix: A Practical Approach” (M. A. Haralson, and J. R. Hassell, Eds.), pp. 261-287. Oxford University Press, New York).

As to `c1cnc2c(c1)ccc1cccnc12` [1,10-phenanthroline], the “Inhibition of proteolytic activity in supernatants of stromelysin- and gelatinase-expressing virus infections” value is “inhibited”.
